Results published in patent US20200010482A1, “INHIBITORS OF BETA SECRETASE” (Janssen Pharmaceutica NV, priority 2017, published 2020).

Tests used:
[1] = test system: Abeta 1-42 produced and secreted by SKNBE2 cells expressing hAPP695; assay: Cellular αLisa assay in SKNBE2 cells, Abeta 1-42; assay type: cell-based, human; conditions: SKNBE2 cells expressing hAPP695, 18 hours incubation; for IC50: Homo sapiens, SKNBE2, 18 h, read-out: CELLULAR αLISA ASSAY IN SKNBE2 CELLS ABETA 42 PIC50 (converted)
Method in brief: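 Human neuroblastoma SKNBE2 cells expressing wild-type hAPP695 treated with compound for 18 h; secreted Abeta total or Abeta 1-42 in medium measured by sandwich αLisa (AbN/25 with Ab4G8 or cAb42/26), read after 1 h. IC50 from least-squares fit of % Controlmin, normalised to untreated and no-antibody controls.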

BACE1 = molecular target: T1, BACE1 (Homo sapiens, UniProt P56817); assay: BACE1 biochemical FRET based assay; conditions: recombinant BACE1 0.04 μg/ml, 20 μM substrate, 450 min, pH 5.0; for IC50: read-out: BIOCHEMICAL FRET BASED ASSAY pIC50 (converted)
T1 construct: recombinant BACE1 protein in a final concentration of 0.04 μg/ml
Method in brief: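 Recombinant BACE1 (0.04 μg/ml final) incubated 450 min at room temperature with 20 μM Mca/Dnp-labelled 13-mer Swedish APP peptide in 50 mM citrate pH 5.0, 0.05% PEG. Fluorescence (ex 320/em 405 nm) at 450 min minus early baseline Tx; IC50 fitted from % Controlmin versus concentration.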

BACE2 = molecular target: T2, BACE2 (Homo sapiens, UniProt Q9Y5Z0); assay: BACE2 biochemical FRET based assay; conditions: recombinant BACE2 0.4 μg/ml, 10 μM substrate, 450 min, pH 5.0; for IC50: read-out: BIOCHEMICAL FRET BASED ASSAY pIC50 (converted)
T2 construct: recombinant BACE2 protein in a final concentration of 0.4 μg/ml
T2 sequence (Q9Y5Z0 63-518): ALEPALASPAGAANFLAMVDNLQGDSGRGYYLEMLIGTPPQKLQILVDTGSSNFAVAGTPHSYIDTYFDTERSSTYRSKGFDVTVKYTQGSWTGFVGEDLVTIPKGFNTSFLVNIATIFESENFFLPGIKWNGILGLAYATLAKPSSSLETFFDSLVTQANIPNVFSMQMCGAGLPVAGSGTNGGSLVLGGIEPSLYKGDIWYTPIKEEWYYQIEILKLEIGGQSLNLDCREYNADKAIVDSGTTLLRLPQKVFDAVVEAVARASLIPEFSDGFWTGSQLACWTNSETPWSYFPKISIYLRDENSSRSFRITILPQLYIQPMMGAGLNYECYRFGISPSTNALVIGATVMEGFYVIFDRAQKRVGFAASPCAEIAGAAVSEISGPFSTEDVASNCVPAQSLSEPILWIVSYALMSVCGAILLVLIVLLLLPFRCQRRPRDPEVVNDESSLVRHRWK
Method in brief: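 Recombinant enzyme (0.4 μg/ml final) incubated 450 min at room temperature with 10 μM Mca/Dnp-quenched Swedish-mutant APP peptide in 50 mM citrate pH 5.0, 0.05% PEG, no DMSO. Fluorescence (ex 320/em 405 nm) change from T0 to T450 normalised to no-enzyme and enzyme controls; IC50 from least-squares curve fit.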

T1 sequence (P56817 46-501): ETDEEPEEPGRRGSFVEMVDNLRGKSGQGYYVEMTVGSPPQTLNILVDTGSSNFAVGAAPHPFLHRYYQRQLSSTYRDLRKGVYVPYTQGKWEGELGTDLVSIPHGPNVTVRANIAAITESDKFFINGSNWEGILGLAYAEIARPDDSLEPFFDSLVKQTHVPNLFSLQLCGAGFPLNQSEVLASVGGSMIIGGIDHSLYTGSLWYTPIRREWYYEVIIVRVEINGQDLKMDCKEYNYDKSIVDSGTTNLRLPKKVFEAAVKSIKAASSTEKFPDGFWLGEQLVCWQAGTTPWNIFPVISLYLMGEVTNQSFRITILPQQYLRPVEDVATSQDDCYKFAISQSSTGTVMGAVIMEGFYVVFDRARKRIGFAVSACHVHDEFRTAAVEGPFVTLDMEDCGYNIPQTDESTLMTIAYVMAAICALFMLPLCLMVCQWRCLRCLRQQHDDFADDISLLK

SMILES | IC50 [1] [nM] | IC50 (BACE1) [nM] | IC50 (BACE2) [nM] | CELLULAR αLISA ASSAY IN SKNBE2 CELLS ABETA 42 PIC50 [1] | BIOCHEMICAL FRET BASED ASSAY pIC50 (BACE1) | BIOCHEMICAL FRET BASED ASSAY pIC50 (BACE2)
COc1ncc(C#N)c2c1C[C@]1(c3ccccc3F)N=C(N)SC[C@@H]1C2 (racemic) [Compound 22] | 41.7 | 178 | 240 |  |  | 
COc1cc(C)c(-c2cnc(OC)c3c2C[C@H]2CSC(N)=N[C@@]2(c2ccc(F)cc2F)C3)cn1 [Compound 106] | 5.89 | 8.71 | 195 |  |  | 
COc1ncc(-c2ccccc2C)c2c1C[C@]1(c3ccc(F)cc3F)N=C(N)SC[C@@H]1C2 [Compound 55] |  |  |  | 7.99 | 8.45 | 7.4
COc1ncc(-c2ccccc2)c2c1C[C@]1(c3ccc(F)cc3F)N=C(N)SC[C@@H]1C2 [Compound 49] |  |  |  | 8.56 | 8.81 | 8.43
COC/C=C/c1cnc(OC)c2c1C[C@H]1CSC(N)=N[C@@]1(c1ccc(F)cc1F)C2 [Compound 47] | 5.62 | 10.2 | 6.61 |  |  | 
COc1ncc(-c2cc(Cl)ccc2C)c2c1C[C@]1(c3ccc(F)cc3F)N=C(N)SC[C@@H]1C2 [Compound 60] |  |  |  | 7.25 | 8.26 | 6.9
